Assays:
[1] = system: normal NK cells expanded with K562-aAPC; assay: drug sensitivity score (DSS) (DSS units); higher = more sensitive; extreme values may be limits of the assay; conditions: 72 h; IL-2 2.5 ng/mL
Description: (§1)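 Drug sensitivity and resistance testing on K562-aAPC-expanded normal NK cells: 5 concentrations (10-fold steps over a 10,000-fold range), 72 h at 37 °C, viability by CellTiter-Glo normalised to DMSO and benzethonium chloride controls; DSS from the fitted curve.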

NKL (IL-2 2.5 ng/mL) [2] = assay: percent inhibition of viability; higher = more inhibition; conditions: 72 h
NK-92 (IL-2 2.5 ng/mL) [3] = assay: as above; conditions: 72 h
DERL-7 (IL-2 2.5 ng/mL) [4] = assay: as above; conditions: 72 h
[5] = system: normal primary NK cells, pool 1 (3 donors) (IL-2 2.5 ng/mL); assay: as above; conditions: 72 h
YT (IL-2 2.5 ng/mL) [6] = assay: as above; conditions: 72 h
SNK-6 (IL-2 2.5 ng/mL) [7] = assay: as above; conditions: 72 h
KAI3 (IL-2 2.5 ng/mL) [8] = assay: as above; conditions: 72 h
[9] = system: normal primary NK cells, pool 1 (3 donors), resting (IL-2 0 ng/mL); assay: as above; conditions: 72 h
[10] = system: normal primary NK cells, pool 3 (3 donors) (IL-2 2.5 ng/mL); assay: as above; conditions: 72 h
IMC-1 (IL-2 20 ng/mL) [11] = assay: as above; conditions: 72 h
NK-YS (IL-2 2.5 ng/mL) [12] = assay: as above; conditions: 72 h
KHYG-1 (IL-2 2.5 ng/mL) [13] = assay: as above; conditions: 72 h
[14] = system: normal primary NK cells, pool 2 (3 donors) (IL-2 2.5 ng/mL); assay: as above; conditions: 72 h
[15] = system: normal NK cells expanded with K562-aAPC; assay: as above; conditions: 72 h, IL-2 2.5 ng/mL
Description: as §1

NKL (IL-2 2.5 ng/mL) [16] = assay: drug sensitivity score (DSS) (DSS units); higher = more sensitive; extreme values may be limits of the assay; conditions: 72 h
NK-92 (IL-2 2.5 ng/mL) [17] = assay: as above; conditions: 72 h
DERL-7 (IL-2 2.5 ng/mL) [18] = assay: as above; conditions: 72 h
[19] = system: normal primary NK cells, pool 1 (3 donors) (IL-2 2.5 ng/mL); assay: as above; conditions: 72 h
YT (IL-2 2.5 ng/mL) [20] = assay: as above; conditions: 72 h
SNK-6 (IL-2 2.5 ng/mL) [21] = assay: as above; conditions: 72 h
KAI3 (IL-2 2.5 ng/mL) [22] = assay: as above; conditions: 72 h
[23] = system: normal primary NK cells, pool 1 (3 donors), resting (IL-2 0 ng/mL); assay: as above; conditions: 72 h
[24] = system: normal primary NK cells, pool 3 (3 donors) (IL-2 2.5 ng/mL); assay: as above; conditions: 72 h
IMC-1 (IL-2 20 ng/mL) [25] = assay: as above; conditions: 72 h
NK-YS (IL-2 2.5 ng/mL) [26] = assay: as above; conditions: 72 h
KHYG-1 (IL-2 2.5 ng/mL) [27] = assay: as above; conditions: 72 h
[28] = system: normal primary NK cells, pool 2 (3 donors) (IL-2 2.5 ng/mL); assay: as above; conditions: 72 h

COc1cc(C(=O)NC2CCN(C)CC2)c(F)cc1Nc1ncc2c(n1)N(C1CCCC1)CC(F)(F)C(=O)N2C [TAK-960] (max concentration tested 2500 nM)
Conditions	drug sensitivity score
DERL-7 (IL-2 2.5 ng/mL) [18]	0.89
IMC-1 (IL-2 20 ng/mL) [25]	0.63
KAI3 (IL-2 2.5 ng/mL) [22]	0
KHYG-1 (IL-2 2.5 ng/mL) [27]	0
NK-92 (IL-2 2.5 ng/mL) [17]	0.18
NK-YS (IL-2 2.5 ng/mL) [26]	0
NKL (IL-2 2.5 ng/mL) [16]	0
SNK-6 (IL-2 2.5 ng/mL) [21]	13
YT (IL-2 2.5 ng/mL) [20]	0
[1]	0
[19]	0
[23]	0
[24]	0
[28]	0.16

percent inhibition of viability [%]
Conditions	0.25 nM	2.5 nM	25 nM	250 nM	2500 nM
DERL-7 (IL-2 2.5 ng/mL) [4]	-1.39	-5.61	-0.81	-6.15	-11.4
IMC-1 (IL-2 20 ng/mL) [11]	-4.4	4.01	9.33	8.23	11.8
KAI3 (IL-2 2.5 ng/mL) [8]	-8.99	-1.96	-2.51	-1.54	2.64
KHYG-1 (IL-2 2.5 ng/mL) [13]	0.04	3.31	3.4	2.48	6.51
NK-92 (IL-2 2.5 ng/mL) [3]	-8.09	-7.71	9.2	-1.64	15.2
NK-YS (IL-2 2.5 ng/mL) [12]	-3.49	1.57	0.97	0.32	6.84
NKL (IL-2 2.5 ng/mL) [2]	-17.8	-2.17	0.04	4.31	2.51
SNK-6 (IL-2 2.5 ng/mL) [7]	22.6	22	36.4	38	22.1
YT (IL-2 2.5 ng/mL) [6]	1.09	0.71	8.79	0.43	6.32
[5]	7.7	-2.83	-1.46	-9	3.2
[9]	11.1	-6.28	-3.33	-13.8	-6.51
[10]	-10.9	-5.87	7.99	-6.67	-0.88
[14]	-10.9	-4.09	10.7	0.25	13.6
[15]	-3.09	0.01	0.41	9.42	8.37

COc1ccccc1S(=O)(=O)Nc1ccc2c(c1)CN(C)C(=O)N2 [PFI-1] (max concentration tested 10000 nM)
Conditions	drug sensitivity score
DERL-7 (IL-2 2.5 ng/mL) [18]	9.94
IMC-1 (IL-2 20 ng/mL) [25]	2.96
KAI3 (IL-2 2.5 ng/mL) [22]	3.39
KHYG-1 (IL-2 2.5 ng/mL) [27]	8.09
NK-92 (IL-2 2.5 ng/mL) [17]	0.06
NK-YS (IL-2 2.5 ng/mL) [26]	7.15
NKL (IL-2 2.5 ng/mL) [16]	8.04
SNK-6 (IL-2 2.5 ng/mL) [21]	3.9
YT (IL-2 2.5 ng/mL) [20]	3.74
[1]	4.03
[19]	1.98
[23]	0.99
[24]	2.17
[28]	4.3

percent inhibition of viability [%]
Conditions	1 nM	10 nM	100 nM	1000 nM	10000 nM
DERL-7 (IL-2 2.5 ng/mL) [4]	-2.29	2.86	9.32	41.8	91.8
IMC-1 (IL-2 20 ng/mL) [11]	-2.65	-6.11	-1.36	1.44	52.3
KAI3 (IL-2 2.5 ng/mL) [8]	-2.2	1.8	-7.46	5.35	48
KHYG-1 (IL-2 2.5 ng/mL) [13]	-2.18	-2.43	-0.21	19.9	89.2
NK-92 (IL-2 2.5 ng/mL) [3]	-6.34	6.35	-0.51	-18.3	14.6
NK-YS (IL-2 2.5 ng/mL) [12]	-6.14	-3.35	2.77	24.8	70
NKL (IL-2 2.5 ng/mL) [2]	-16	-14.6	-8.15	32	70.4
SNK-6 (IL-2 2.5 ng/mL) [7]	-3.16	-6.59	7.82	7.89	48.9
YT (IL-2 2.5 ng/mL) [6]	1.99	0.44	-0.45	5.52	53.1
[5]	1.67	-1.14	-0.56	0.29	39.4
[9]	-7.18	7.82	-0.65	-5.17	29.6
[10]	-2.26	-5.87	0.68	4.06	32.9
[14]	-9.32	-3.5	-1.83	9.71	50.9
[15]	1.38	-2.34	0.83	10.4	45.7
